Test results taken from ChEMBL document CHEMBL1149853, “Cannabinoid ester constituents from high-potency Cannabis sativa” (J Nat Prod, 2008).
In brackets after ≈: the same amount, converted by molar mass. Activity calls are given as the source filed them. The calls are words filed in the database; no cut-off is given here.

How the values were obtained:
[1] = target: Cannabinoid receptor 1 (Homo sapiens) (UniProt P21554); experiment: Binding affinity to CB1 receptor
Candida albicans = experiment: Antimicrobial activity against Candida albicans ATCC 90028; assay type: functional, organism-based
Plasmodium falciparum [2] = experiment: Antimicrobial activity against Plasmodium falciparum W2; assay type: functional, organism-based
Plasmodium falciparum [3] = experiment: Antimicrobial activity against Plasmodium falciparum D6; assay type: functional, organism-based

Cannabinoid receptor 1 (Homo sapiens), sequence (P21554 whole entry): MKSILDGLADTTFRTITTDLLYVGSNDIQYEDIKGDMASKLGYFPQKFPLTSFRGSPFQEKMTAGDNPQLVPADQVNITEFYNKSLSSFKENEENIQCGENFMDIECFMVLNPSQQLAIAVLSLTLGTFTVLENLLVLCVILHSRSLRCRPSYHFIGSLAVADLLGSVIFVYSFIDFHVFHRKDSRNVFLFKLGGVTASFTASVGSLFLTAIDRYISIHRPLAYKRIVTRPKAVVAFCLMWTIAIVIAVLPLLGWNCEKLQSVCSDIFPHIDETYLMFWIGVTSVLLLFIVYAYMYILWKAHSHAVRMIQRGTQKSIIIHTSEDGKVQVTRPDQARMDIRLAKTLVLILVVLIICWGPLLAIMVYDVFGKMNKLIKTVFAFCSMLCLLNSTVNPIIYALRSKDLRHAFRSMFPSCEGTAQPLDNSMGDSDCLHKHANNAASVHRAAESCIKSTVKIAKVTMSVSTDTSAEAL

| SMILES | Activity [1] | further results |
| --- | --- | --- |
| CCCCCc1cc2c(c(O)c1C(=O)O[C@H]1C(C)(C)[C@@H]3CC[C@@]1(C)C3)[C@@H]1C=C(C)CC[C@H]1C(C)(C)O2 | inactive | – |
| CCCCCc1cc2c(c(O)c1C(=O)OC(C)(C)[C@@H]1CC[C@@]3(C)CCCC(C)=C3C1)[C@@H]1C=C(C)CC[C@H]1C(C)(C)O2 | inactive | – |
| CCCCCc1cc2c(c(O)c1C(=O)OC(C)(C)C1CC=C(C)CC1)[C@@H]1C=C(C)CC[C@H]1C(C)(C)O2 (some centres not stated) | inactive | – |
| CCCCCc1cc(O)c(C/C=C(\C)CCC=C(C)C)c(O)c1C(=O)OC(C)(C)[C@@H]1CC[C@@]2(C)CCCC(C)=C2C1 | inactive | – |
| CCCCCc1cc2c(c(O)c1C(=O)O[C@@H]1C(C)(C)[C@@H]3CC[C@@]1(C)C3)[C@@H]1C=C(C)CC[C@H]1C(C)(C)O2 | inactive | – |
| CCCCCc1cc2c(c(O)c1C(=O)O[C@@]1(C)CC[C@@H](C(C)C)[C@@H]3C=C(C)CC[C@H]31)[C@@H]1C=C(C)CC[C@H]1C(C)(C)O2 | inactive | – |
| CCCCCc1cc2c(c(O)c1C(=O)O)[C@@H]1C=C(C)CC[C@H]1C(C)(C)O2 | inactive | – |
| CCCCCc1cc(O)c(C/C=C(\C)CCC=C(C)C)c(O)c1C(=O)O[C@@]1(C)CC[C@@H](C(C)C)[C@@H]2C=C(C)CC[C@H]21 | inactive | – |
| CCCCCc1cc2c(c(O)c1C(=O)OC1(C(C)C)CC=C(C)CC1)-c1cc(C)ccc1C(C)(C)O2 (configuration not stated) | inactive | IC50 (Candida albicans): 8.5 µg/mL (≈ 17.3 µM); IC50 (Plasmodium falciparum [2]): 2.4 µg/mL (≈ 4.89 µM); IC50 (Plasmodium falciparum [3]): 2.7 µg/mL (≈ 5.5 µM) |
| CCCCCc1cc2c(c(O)c1C(=O)OC1(C(C)C)CC=C(C)CC1)[C@@H]1C=C(C)CC[C@H]1C(C)(C)O2 (some centres not stated) | inactive | – |
| CCCCCc1cc2c(c(O)c1C(=O)O[C@H]1C[C@H]3CC[C@@]1(C)C3(C)C)[C@@H]1C=C(C)CC[C@H]1C(C)(C)O2 | inactive | – |
| CCCCCc1cc2c(c(O)c1C(=O)O[C@H]1C[C@H]3CC[C@]1(C)C3(C)C)[C@@H]1C=C(C)CC[C@H]1C(C)(C)O2 | inactive | – |
| CCCCCc1cc2c(c(O)c1C(=O)O)-c1cc(C)ccc1C(C)(C)O2 | inactive | – |
| CCCCCc1cc(O)c(C/C=C(\C)CCC=C(C)C)c(O)c1C(=O)O | inactive | – |
